Experimental data reported in ChEMBL document CHEMBL3045738, “Control of Greenhouse Whitefly (Trialeurodes vaporariorum) Using Visually Attractive Targets Impregnated with Pyriproxyfen” (J Pestic Sci, 2005).
Active and inactive are the calls of the source. The calls are words filed in the database; no cut-off is given here.

Experiments:
[1] = test system: Trialeurodes vaporariorum; experiment: Insecticidal activity against Trialeurodes vaporariorum in bean plant leaf up to 50 days by glasshouse method; type: functional, organism-based
[2] = test system: Trialeurodes vaporariorum; experiment: Insecticidal activity against Trialeurodes vaporariorum in ten-leaf stage of bean plant after 10 to 35 days; type: functional, organism-based

In the case of `CC(COc1ccc(Oc2ccccc2)cc1)Oc1ccccn1` (racemic), the Activity [1] is reported as “Active” and the Activity [2] is reported as “Active”.
